Measurements reported in PMC6271731, “Multitarget Molecular Hybrids of Cinnamic Acids” (Molecules, 2014).
Several values for one entry are separate records, joined by “and”; a condition that tells them apart may be missing. Equal entries are not always repeated.

Columns and labels:
[1] = tested on: carrageenin-induced rat paw oedema; assay: Inhibition of the carrageenin-induced rat paw oedema; format: in vivo, Fisher-344 rats; settings: 0.01 mmol/1 kg, i.p., 3.5 h after carrageenin
Procedure: Anti-inflammatory tests were conducted on Fisher-344 inbred rats of ca. 200 g body weight whereas antinociception and motor and sensory functions after sciatic nerve crash were performed on Wistar rats. Both sexes were used. Females pregnant were excluded. Each group was composed of 6 animals. The animals, which have been bred in our laboratory, were housed under standard conditions and received a diet of commercial food pellets and water ad libitum during the maintenance. Our studies were carried out in accordance with recognised guidelines on animal experimentation.
The tested compounds 0.01 mmol/kg body weight were suspended in water with few drops of Tween 80 and ground in a mortar before use. Controls received the liquid vehicle only. All the in vivo experiments were repeated at least in triplicate and were subjected to statistic analysis using the student’s t-test.
Oedema was induced in the right hind paw of Fisher 344 rats by the intradermal injection of 0.1 mL 2% carrageenin in water. Each group was composed of 6 animals which they were entirely fasted during the experiment period. The tested compounds 0.01 mmol/kg body weight, were given intraperitoneally simultaneously with the carrageenin injection. The rats were euthanized 3.5 h after carrageenin injection. The difference between the weight of the injected and not-injected paws was calculated for each animal. The change in paw weight was compared with that in control animals (treated with water) and expressed as a percent inhibition of the oedema (ICPE % values in Table 1). Indomethacin 0.01 mmol/kg was used as reference compound. ICPE % are the mean values from two different experiments with a standard error of the mean less than 10%.

[2] = target: T1, pancreatic bovine trypsin (Bos taurus, UniProt P00760); assay: Inhibition of trypsin induced proteolysis in vitro; format: biochemical; settings: bovine albumin substrate, pH 7.6, 37 °C; read-out: IC50 μM Trypsin Inh.
T1 construct: purchased Sigma Chemical, Co. (St. Louis, MO, USA)
T1 sequence (P00760 24-246): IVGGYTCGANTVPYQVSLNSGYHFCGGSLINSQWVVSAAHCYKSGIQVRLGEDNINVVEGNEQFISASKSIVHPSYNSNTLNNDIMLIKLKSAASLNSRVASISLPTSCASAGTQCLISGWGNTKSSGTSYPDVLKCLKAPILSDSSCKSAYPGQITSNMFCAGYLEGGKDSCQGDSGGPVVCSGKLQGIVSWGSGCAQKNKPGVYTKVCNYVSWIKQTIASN
Source text: All chemicals, solvents, chemical and biochemical reagents were of analytical grade and purchased from commercial sources (Merck, Merck KGaA, Darmstadt, Germany, Fluka Sigma-Aldrich Laborchemikalien GmbH, Hannover, Germany, Alfa Aesar, Karlsruhe, Germany and Sigma, St. Louis, MO, USA). Soybean lipoxygenase, pancreatic bovine trypsin, sodium linoleate, free radical DPPH and 2,2-azinobis-2-methyl-propanimidamine HCl (AAPH) were obtained from Sigma Chemical, Co. (St. Louis, MO, USA), carrageenin, type K, was commercially available. All starting materials were obtained from commercial sources and used without further purification.
The test was carried out according to a modified Kunitz method. Bovine albumin was used as substrate for trypsin. The reaction mixture consisted of 0.075 mg/mL trypsin (200 μL) and 780 μL of phosphate buffer pH 7.6 (including the tested compounds (20 μL in DMSO, final concentration 100 μM) preincubated at 37 °C for 20 min and then 1 mL of albumin (stock solution 6 g/100 mL in phosphate buffer 0.1 M, pH 7.6) was added and incubated at 37 °C for 30 min. After the incubation 1 mL of 5% trichloroacetic acid was added to the incubated solution to stop the enzyme’s reaction and allowed to set at room temperature for 1 h. Then the solution was filtered by filter paper and the absorption of the filtered solution was measured at 280 nm. Salicylic acid was used as a reference compound (Table 1).

sciatic nerve crush [3] = assay: Recovery of motor and sensory functions after sciatic nerve crush; format: in vivo, Wistar rats; settings: adult rats, intraperitoneally after the compression of the nerve
Procedure: (§1) The locomotor function recovery was examined through the flat runway test, the inclined plane runway test, the grid walking test and the Sciatic Functional Index (SFI) calculation.
(§2) One day prior to the surgery and the behavioral testing, Wistar rats were handled by the investigators and introduced to the testing environment for a brief period of time. Rats were anesthetized with chloral hydrate 4.5% (1 mL/100 g). […] After the exposure, the nerve was crushed once for 30 s at standardized force. The muscle was reapproximated and the skin incision was closed using 6 to 0 sutures. The examination of the loss of sensory and motor function in the operated limb established the crush completeness. Digits in the operated limb were pinched with a blunt forceps. Absence of foot withdrawal and vocalization was recorded as loss of sensory and motor function. Animals were placed under a heating lamp until they recovered from the anesthesia and they returned to their home cages.
(§3) The tested solutions were freshly prepared on surgery day (day 0).
(§4) The animals were subjected to a locomotor testing one day before the surgery and on the 1st, 8th, 15th and 22nd day after the sciatic nerve injury. The day of the surgery is considered as day 0 [36, 37, 38].

sciatic nerve crush [4] = assay: Flat runway test after sciatic nerve crush; format: in vivo, Wistar rats; parameters: key: 0: No movement; 1: Mild movement; 2: Walking with mild deficit; 3: Nearly normal; settings: crushed animals treated with 2a, day 1 to day 21
Procedure: as §1, §2, §3, §4
Rats were trained to walk on a wooden board (1 m × 15 cm) for 120 s. The hindlimb movement was assessed with the scoring mentioned before.

CC(=O)Nc1ccc(OC(=O)/C=C/c2cccc(Oc3ccccc3)c2)cc1 [Compound 2a, (E)-4-Acetamidophenyl 3-(3-phenoxyphenyl)acrylate]
% ICPE (carrageenin-induced rat paw oedema inhibition) [1]: 36.5% and 36.5 ** %
IC50 [2]: 10 µM
recovering motor and sensory functions (sciatic nerve crush [3]): effective in recovering motor and sensory functions
Flat runway score (movement in hindlimb) (sciatic nerve crush [4]): 3
